Legend:
[1] = tested on: barnyardgrass (Echinochloa crus-galli); test: Test B flooded paddy test, barnyardgrass; conditions: 336 h, read-out: Plant response rating, Barnyardgrass
[2] = tested on: barnyardgrass (Echinochloa crus-galli); test: Test A postemergence, barnyardgrass; assay type: in vivo; conditions: Echinochloa crus-galli, post-emergence, 240 h, read-out: Plant response rating, Barnyardgrass
Procedure, shortened: (§1)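 Barnyardgrass, wheat and galium were treated postemergence at the one- to two-leaf stage (2 to 10 cm) with chemicals formulated in non-phytotoxic solvent plus surfactant, grown in loam soil–sand pots. Pigweed was sown in the same blend and given a preemergence directed soil spray.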

[3] = tested on: ducksalad (Heteranthera limosa); test: Test B flooded paddy test, ducksalad; conditions: 336 h, read-out: Plant response rating, Ducksalad
kochia (Bassia scoparia) [4] = test: Test A preemergence, kochia; assay type: in vivo; conditions: Bassia scoparia, pre-emergence, 240 h; for pest or weed control at 500 g/ha: read-out: Kochia plant response rating
Procedure, shortened: (§2)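 Formulated with a surfactant in a non-phytotoxic solvent, compounds are applied to loam–sand pots, either to bare soil immediately after seeding (preemergence) or to seedlings of 2 to 10 cm bearing one to two leaves (postemergence).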

kochia (Bassia scoparia) [5] = test: Test A postemergence, kochia; assay type: in vivo; conditions: Bassia scoparia, post-emergence, 240 h, read-out: Plant response rating, Kochia
Procedure, shortened: as §2

[6] = tested on: Foxtail, Giant (giant foxtail, Setaria faberi); test: Test A postemergence, Foxtail, Giant; assay type: in vivo; conditions: Setaria faberi, post-emergence, 240 h, read-out: Plant response rating, Foxtail, Giant
Procedure, shortened: as §2

[7] = tested on: ragweed (common ragweed, Ambrosia artemisiifolia); test: Test A preemergence, ragweed; assay type: in vivo; conditions: Ambrosia artemisiifolia, pre-emergence, 240 h; for pest or weed control at 125 g/ha: read-out: Plant response rating, Ragweed; for pest or weed control at 500 g/ha: read-out: Ragweed plant response rating
Procedure, shortened: as §2

[8] = tested on: Ryegrass, Italian (Italian ryegrass, Lolium multiflorum); test: Test A preemergence, Ryegrass, Italian; assay type: in vivo; conditions: Lolium multiflorum, pre-emergence, 240 h; for pest or weed control at 500 g/ha: read-out: Ryegrass, Italian plant response rating
Procedure, shortened: as §2

[9] = tested on: galium (catchweed bedstraw, Galium aparine); test: Test A postemergence, galium; assay type: in vivo; conditions: Galium, post-emergence, 240 h, read-out: Plant response rating, Galium
Procedure, shortened: as §1

[10] = tested on: barnyardgrass (Echinochloa crus-galli); test: Test A preemergence, barnyardgrass; assay type: in vivo; conditions: Echinochloa crus-galli, pre-emergence, 240 h; for pest or weed control at 500 g/ha: read-out: Barnyardgrass plant response rating
Procedure, shortened: as §2

corn (Zea mays) = test: Test A postemergence, corn; assay type: in vivo; conditions: Zea mays, post-emergence, 240 h; for plant injury at 125 g/ha / plant injury at 500 g/ha: read-out: Plant response rating, Corn
Procedure, shortened: as §2

[11] = tested on: ragweed (common ragweed, Ambrosia artemisiifolia); test: Test A postemergence, ragweed; assay type: in vivo; conditions: Ambrosia artemisiifolia, post-emergence, 240 h, read-out: Plant response rating, Ragweed
Procedure, shortened: as §2

rice (Oryza sativa) = test: Test B flooded paddy test, rice; conditions: 336 h, read-out: Plant response rating, Rice
[12] = tested on: Foxtail, Giant (giant foxtail, Setaria faberi); test: Test A preemergence, Foxtail, Giant; assay type: in vivo; conditions: Setaria faberi, pre-emergence, 240 h; for pest or weed control at 500 g/ha: read-out: Foxtail, Giant plant response rating
Procedure, shortened: as §2

[13] = tested on: pigweed (Amaranthus retroflexus); test: Test A postemergence, pigweed; assay type: in vivo; conditions: Amaranthus retroflexus, post-emergence, 240 h, read-out: Plant response rating, Pigweed
Procedure, shortened: as §2

[14] = tested on: blackgrass (Alopecurus myosuroides); test: Test A postemergence, blackgrass; assay type: in vivo; conditions: Alopecurus myosuroides, post-emergence, 240 h, read-out: Plant response rating, Blackgrass
Procedure, shortened: as §2

[15] = tested on: wheat (Triticum aestivum); test: Test A postemergence, wheat; assay type: in vivo; conditions: Triticum aestivum, post-emergence, 240 h, read-out: Plant response rating, Wheat
Procedure, shortened: as §1

[16] = tested on: Ryegrass, Italian (Italian ryegrass, Lolium multiflorum); test: Test A postemergence, Ryegrass, Italian; assay type: in vivo; conditions: Lolium multiflorum, post-emergence, 240 h, read-out: Plant response rating, Ryegrass, Italian
Procedure, shortened: as §2

[17] = tested on: pigweed (Amaranthus retroflexus); test: Test A preemergence, pigweed; assay type: in vivo; conditions: Amaranthus retroflexus, pre-emergence, 240 h, 1000 g ai/ha, 0 to 100 scale (0 no effect, 100 complete control), read-out: Plant response rating, Pigweed
Procedure, shortened: as §1

[18] = read-out: Plant response rating, Kochia
[19] = read-out: Plant response rating, Ryegrass, Italian
[20] = read-out: Plant response rating, Barnyardgrass
[21] = read-out: Plant response rating, Foxtail, Giant
[22] = Postemergence, 1000 g ai/ha, visual injury, 0 to 100 scale (0 no effect, 100 complete control), approx. 10 days

Row | Compound | pest or weed control at 250 g/ha [1] | pest or weed control at 125 g/ha [2] | pest or weed control at 500 g/ha [2] | pest or weed control at 250 g/ha [3] | pest or weed control at 500 g/ha (kochia (Bassia scoparia) [4]) | pest or weed control at 125 g/ha (kochia (Bassia scoparia) [4]; [18]) | pest or weed control at 125 g/ha (kochia (Bassia scoparia) [5]) | pest or weed control at 500 g/ha (kochia (Bassia scoparia) [5]) | pest or weed control at 125 g/ha [6] | pest or weed control at 500 g/ha [6] | pest or weed control at 125 g/ha [7] | pest or weed control at 500 g/ha [7] | pest or weed control at 125 g/ha [8, 19] | pest or weed control at 500 g/ha [8] | pest or weed control at 125 g/ha [9] | pest or weed control at 500 g/ha [9] | pest or weed control at 500 g/ha [10] | pest or weed control at 125 g/ha [10, 20] | plant injury at 125 g/ha (corn (Zea mays)) | plant injury at 250 g/ha (rice (Oryza sativa)) | also measured
1 | Cc1cc(C)c(N2CCC3(CCCCC3)C2=O)cc1NS(=O)(=O)C(F)(F)F [Compound 278, N-[2,4-Dimethyl-5-(1-oxo-2-azaspiro[4.5]dec-2-yl)phenyl]-1,1,1-trifluoromethanesulfonamide] | 0% | 20% | 80% | 85% | 100% | 90% | 30% | 70% | 0% | 20% | 90% | 100% | 100% | 100% | 90% | 90% | 100% | 60% | 0% | 15% | plant injury at 500 g/ha (corn (Zea mays)): 30%; pest or weed control at 125 g/ha [11]: 40%; pest or weed control at 500 g/ha [11]: 60%; pest or weed control at 500 g/ha [12]: 100%; pest or weed control at 125 g/ha [12, 21]: 60%; pest or weed control at 125 g/ha [13]: 60%; pest or weed control at 500 g/ha [13]: 90%; pest or weed control at 125 g/ha [14]: 0%; pest or weed control at 500 g/ha [14]: 50%; plant injury at 125 g/ha [15]: 60%; plant injury at 500 g/ha [15]: 70%; pest or weed control at 125 g/ha [16]: 30%; pest or weed control at 500 g/ha [16]: 80%
2 | Cc1cc(C)c(C(=O)N2CCOCC2)cc1NS(=O)(=O)C(F)(F)F [Compound 6, N-[2,4-Dimethyl-5-(4-morpholinylcarbonyl)phenyl]-1,1,1-trifluoromethanesulfonamide] | 0% |  |  | 0% |  |  |  |  |  |  |  |  |  |  |  |  |  |  |  | 0% | pest or weed control at 1000 g/ha [17]: 100%; pest or weed control at 1000 g/ha [2, 22]: 90%; pest or weed control at 1000 g/ha (kochia (Bassia scoparia) [4]; Preemergence, 1000 g ai/ha, 0 to 100 scale (0 no effect, 100 complete control), read-out: Plant response rating, Kochia): 100%; pest or weed control at 1000 g/ha (kochia (Bassia scoparia) [5]; [22]): 80%; pest or weed control at 1000 g/ha [6, 22]: 90%; pest or weed control at 1000 g/ha ([8]; Preemergence, 1000 g ai/ha, 0 to 100 scale (0 no effect, 100 complete control), read-out: Plant response rating, Ryegrass, Italian): 100%; pest or weed control at 1000 g/ha [9, 22]: 90%; pest or weed control at 1000 g/ha ([10]; Preemergence, 1000 g ai/ha, 0 to 100 scale (0 no effect, 100 complete control), read-out: Plant response rating, Barnyardgrass): 100%; Corn plant response rating (crop injury, 0 = no effect, 100 = complete kill) at 1000 g/ha (corn (Zea mays); [22]): 60%; pest or weed control at 1000 g/ha [11, 22]: 50%; pest or weed control at 1000 g/ha ([12]; Preemergence, 1000 g ai/ha, 0 to 100 scale (0 no effect, 100 complete control), read-out: Plant response rating, Foxtail, Giant): 100%; pest or weed control at 1000 g/ha [13, 22]: 100%; pest or weed control at 1000 g/ha [14, 22]: 60%; plant injury at 1000 g/ha [15, 22]: 60%; pest or weed control at 1000 g/ha [16, 22]: 80%
3 | Cc1cc(C)c(N(COC(=O)C(C)(C)C)S(=O)(=O)C(F)(F)F)cc1N1CCC2(CCCCC2)C1=O [Compound 268, [[2,4-Dimethyl-5-(1-oxo-2-azaspiro[4.5]dec-2-yl)phenyl][(trifluoromethyl)sulfonyl]amino]methyl 2,2-dimethylpropanoate] | 40% | 50% | 80% | 70% | 70% | 70% | 30% | 40% | 0% | 30% | 40% | 90% | 0% | 60% | 90% | 90% | 50% | 40% | 50% | 0% | plant injury at 500 g/ha (corn (Zea mays)): 70%; pest or weed control at 125 g/ha [11]: 70%; pest or weed control at 500 g/ha [11]: 90%; pest or weed control at 500 g/ha [12]: 70%; pest or weed control at 125 g/ha [12, 21]: 50%; pest or weed control at 125 g/ha [13]: 60%; pest or weed control at 500 g/ha [13]: 80%; pest or weed control at 125 g/ha [14]: 20%; pest or weed control at 500 g/ha [14]: 40%; plant injury at 125 g/ha [15]: 50%; plant injury at 500 g/ha [15]: 70%; pest or weed control at 125 g/ha [16]: 40%; pest or weed control at 500 g/ha [16]: 60%
4 | Cc1cc(C)c(N(S(=O)(=O)C(F)(F)F)S(=O)(=O)C(F)(F)F)cc1N1CCC2(CCCCC2)C1=O [Compound 267, N-[2,4-Dimethyl-5-(1-oxo-2-azaspiro[4.5]dec-2-yl)phenyl]-1,1,1-trifluoro-N-[(trifluoromethyl)sulfonyl]methanesulfonamide] | 0% | 20% | 20% | 35% | 100% | 80% | 40% | 60% | 0% | 0% | 100% | 100% | 90% | 100% | 80% | 90% | 100% | 100% | 0% | 0% | plant injury at 500 g/ha (corn (Zea mays)): 0%; pest or weed control at 125 g/ha [11]: 10%; pest or weed control at 500 g/ha [11]: 40%; pest or weed control at 500 g/ha [12]: 100%; pest or weed control at 125 g/ha [12, 21]: 100%; pest or weed control at 125 g/ha [13]: 50%; pest or weed control at 500 g/ha [13]: 80%; pest or weed control at 125 g/ha [14]: 0%; pest or weed control at 500 g/ha [14]: 20%; plant injury at 125 g/ha [15]: 40%; plant injury at 500 g/ha [15]: 60%; pest or weed control at 125 g/ha [16]: 0%; pest or weed control at 500 g/ha [16]: 30%
